One test deals with porcine DP II. The test can be described thus: Inhibition of DPIV-like enzymes: dipeptidyl peptidase II. It is filed as biochemical. The settings on record: inhibitor 1*10^−4 M-5*10^−8 M, pH7.6. As for the experimental part: DP II (3.4.14.2) releases N-terminal dipeptides from oligopeptides if the N-terminus is not protonated (McDonald, J. K., Ellis, S. & Reilly, T. J., 1966, J. Biol. Chem., 241, 1494-1501). Pro and Ala in P1-position are preferred residues. The enzyme activity is described as DPIV-like activity, but DP II has an acidic pH-optimum. The enzyme used was purified from porcine kidney.
100 μl inhibitor in a concentration range of 1*10^−4 M-5*10^−8 M was admixed with 100 μl buffer solution (40 mM HEPES, pH7.6, 0.015% Brij, 1 mM DTT), 50 μl lysylalanylaminomethylcoumarine solution (5 mM) and 20 μl porcine DP II (250fold diluted in buffer solution). Fluorescence measurement was performed at 30° C. and λexcitation=380 nm, λemission=465 nm for 25 min using a plate reader (HTS7000plus, Applied Biosystems, Weiterstadt, Germany). The Ki-values were calculated using Graphit 4.0.15 (Erithacus Software, Ltd., UK).

The target of a further test is attractin (Homo sapiens, UniProt O75882). The test can be described thus: Inhibition of DPIV-like enzymes: attractin. The settings on record: inhibitor 1 mM to 30 nM, Gly-Pro-pNA 0.4 mM, APN. The test is classed as biochemical. As to the method:
100 μl inhibitor stock solution was mixed with 100 μl buffer (HEPES pH7.6) and 20 μl diluted attractin and preincubated at 30° C. Reaction was started by addition of a mixture of 50 μl substrate (Gly-Pro-pNA, final concentration 0.4 mM) and 2 μl APN stock solution. Formation of the product pNA was measured at 405 nm and 30° C. over 10 min using the HTS 7000Plus plate reader (Perkin Elmer) and slopes were calculated. The final inhibitor concentrations ranged between 1 mM and 30 nM. For calculation of IC50 values, GraFit 4.0.13 (Erithacus Software) was used.

Sequence of attractin (O75882 84-1429, species assumed): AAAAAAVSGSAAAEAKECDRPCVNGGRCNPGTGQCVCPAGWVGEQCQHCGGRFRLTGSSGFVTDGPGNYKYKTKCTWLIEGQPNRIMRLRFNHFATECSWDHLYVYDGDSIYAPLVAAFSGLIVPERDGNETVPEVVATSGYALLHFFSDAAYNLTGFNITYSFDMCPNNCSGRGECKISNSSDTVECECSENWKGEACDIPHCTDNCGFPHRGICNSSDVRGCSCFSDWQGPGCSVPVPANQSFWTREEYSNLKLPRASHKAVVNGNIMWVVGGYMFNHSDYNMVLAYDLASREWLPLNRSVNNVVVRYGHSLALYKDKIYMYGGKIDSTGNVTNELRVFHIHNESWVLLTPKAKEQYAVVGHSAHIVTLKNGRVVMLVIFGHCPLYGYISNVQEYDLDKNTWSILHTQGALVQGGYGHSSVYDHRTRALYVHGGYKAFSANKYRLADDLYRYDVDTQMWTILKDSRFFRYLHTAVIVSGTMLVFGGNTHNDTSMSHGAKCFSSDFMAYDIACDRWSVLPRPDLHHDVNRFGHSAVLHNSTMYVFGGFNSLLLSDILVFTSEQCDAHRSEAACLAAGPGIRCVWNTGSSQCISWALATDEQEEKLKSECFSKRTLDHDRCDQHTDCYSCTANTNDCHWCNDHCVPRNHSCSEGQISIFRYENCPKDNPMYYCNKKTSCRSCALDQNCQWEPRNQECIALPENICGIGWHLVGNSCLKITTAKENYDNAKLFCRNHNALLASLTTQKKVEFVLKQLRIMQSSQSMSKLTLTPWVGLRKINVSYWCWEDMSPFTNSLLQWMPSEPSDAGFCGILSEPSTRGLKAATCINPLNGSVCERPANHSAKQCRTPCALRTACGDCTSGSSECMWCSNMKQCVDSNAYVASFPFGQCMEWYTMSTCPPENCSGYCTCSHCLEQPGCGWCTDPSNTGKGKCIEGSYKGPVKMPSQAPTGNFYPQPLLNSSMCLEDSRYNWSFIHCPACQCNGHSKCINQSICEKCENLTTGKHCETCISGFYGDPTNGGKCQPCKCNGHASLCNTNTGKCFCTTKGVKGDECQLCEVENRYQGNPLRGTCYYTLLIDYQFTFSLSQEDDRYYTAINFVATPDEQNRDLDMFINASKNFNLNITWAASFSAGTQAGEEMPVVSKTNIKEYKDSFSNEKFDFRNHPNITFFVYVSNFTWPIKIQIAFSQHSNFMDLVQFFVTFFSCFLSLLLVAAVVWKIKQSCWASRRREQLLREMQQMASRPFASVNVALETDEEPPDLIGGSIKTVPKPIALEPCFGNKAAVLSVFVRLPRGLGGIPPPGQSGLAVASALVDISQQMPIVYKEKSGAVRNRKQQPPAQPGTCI

In the case of `Br.CC(C)[C@H](NC(=O)[C@H](C)N)C(=O)N1CCC[C@H]1C(=O)COC(=O)c1ccccc1` [H-Ala-Val-Pro-CO—CH2O—CO—Ph*HBr, 2-[(Benzoyloxy-methyl)carbonyl]-1-N-[{(L)-Alanyl}-(L)-Valinyl]-(2S)-pyrrolidine hydrobromide], on porcine DP II, the “inhibition of DP II” value is “No inhibition”.

As for `Br.CC(=O)[C@@H]1CCCN1C(=O)[C@@H](NC(=O)[C@H](C)N)C(C)C` [H-Ala-Val-Pro-Me*HBr, 2-Methylcarbonyl-1-N-[(L)-Alanyl-(L)-Valinyl]-(2S)-pyrrolidine hydrobromide], the inhibition of attractin result against attractin is “No inhibition”.

These data come from patent US7608577B2, “Peptidyl ketones as inhibitors of DPIV” (OSI Pharmaceuticals, Inc., priority 2001, dated 2009).
